Measured values: ChEMBL document CHEMBL4619730, “Hypolipidemic constituents from the aerial portion of Sibiraea angustata” (Bioorg Med Chem Lett, 2020)
The source made the active and inactive calls. The calls are words filed in the database; no cut-off is given here.

Assays:
Assay type in all cases: functional, cell-based
HepG2 [1] = test: Hypolipidemic activity in human HepG2 cells assessed as inhibition of oleic acid-induced lipid accumulation at 10 uM
HepG2 [2] = test: Hypolipidemic activity against oleic acid-induced lipid accumulation in human HepG2 cell model assessed as decrease in diglycerides (18:2/20:5/0:0) level at 10 uM by UPLC-QTOF-MS analysis
HepG2 [3] = test: Hypolipidemic activity against oleic acid-induced lipid accumulation in human HepG2 cell model assessed as decrease in triglycerides (16:0/16:0/18:3) level at 10 uM by UPLC-QTOF-MS analysis
HepG2 [4] = test: Hypolipidemic activity against oleic acid-induced lipid accumulation in human HepG2 cell model assessed as decrease in diglycerides (20:1/0:0/20:4) level at 10 uM by UPLC-QTOF-MS analysis
HepG2 [5] = test: Hypolipidemic activity against oleic acid-induced lipid accumulation in human HepG2 cell model assessed as decrease in diglycerides (20:5/16:0/0:0) level at 10 uM by UPLC-QTOF-MS analysis
HepG2 [6] = test: Hypolipidemic activity against oleic acid-induced lipid accumulation in human HepG2 cell model assessed as decrease in triglycerides (18:1/16:0/20:5) level at 10 uM by UPLC-QTOF-MS analysis
HepG2 [7] = test: Hypolipidemic activity against oleic acid-induced lipid accumulation in human HepG2 cell model assessed as decrease in triglycerides (16:0/14:0/20:5) level at 10 uM by UPLC-QTOF-MS analysis
HepG2 [8] = test: Downregulation of HMGCR mRNA expression in human HepG2 cells at 10 uM by qRT-PCR analysis
HepG2 [9] = test: Downregulation of SREBF1 mRNA expression in human HepG2 cells at 10 uM by qRT-PCR analysis
HepG2 [10] = test: Downregulation of FASN mRNA expression in human HepG2 cells at 10 uM by qRT-PCR analysis
HepG2 [11] = test: Hypolipidemic activity against oleic acid-induced lipid accumulation in human HepG2 cell model assessed as decrease in phosphatidylcholine (O-16:0/20:5) level at 10 uM by UPLC-QTOF-MS analysis
HepG2 [12] = test: Hypolipidemic activity against oleic acid-induced lipid accumulation in human HepG2 cell model assessed as decrease in diglycerides (20:4/18:2/0:0) level at 10 uM by UPLC-QTOF-MS analysis
HepG2 [13] = test: Hypolipidemic activity against oleic acid-induced lipid accumulation in human HepG2 cell model assessed as decrease in 1acyl-sn-glycero-3phosphocholines (18:2/0:0) level at 10 uM by UPLC-QTOF-MS analysis
HepG2 [14] = test: Hypolipidemic activity against oleic acid-induced lipid accumulation in human HepG2 cell model assessed as decrease in triglycerides (18:1/18:3/18:1) level at 10 uM by UPLC-QTOF-MS analysis
HepG2 [15] = test: Hypolipidemic activity against oleic acid-induced lipid accumulation in human HepG2 cell model assessed as decrease in phosphatidylcholine (18:2/18:2) level at 10 uM by UPLC-QTOF-MS analysis

SMILES: CC(C)=CC(=O)/C=C(\C)CCO[C@H]1O[C@@H](COC(=O)/C=C/c2ccc(O)c(O)c2)[C@H](O)[C@@H](O)[C@@H]1O
- Activity (HepG2 [1]): Active

SMILES: COc1ccc(/C=C/C(=O)OC[C@@H]2O[C@H](OC/C=C3\C[C@@H](C=C(C)C)OC3=O)[C@@H](O)[C@H](O)[C@H]2O)cc1O
- Activity (HepG2 [2]): Active
- Activity (HepG2 [3]): Active
- Activity (HepG2 [4]): Active
- Activity (HepG2 [5]): Active
- Activity (HepG2 [6]): Active
- Activity (HepG2 [7]): Active
- inhibition (HepG2 [8]): inactive
- inhibition (HepG2 [9]): inactive
- Activity (HepG2 [1]): Active
- inhibition (HepG2 [10]): Active
- Activity (HepG2 [11]): Active
- Activity (HepG2 [12]): Active
- Activity (HepG2 [13]): Active
- Activity (HepG2 [14]): Active
- Activity (HepG2 [15]): Active

SMILES: COc1ccc(/C=C/C(=O)OC[C@@H]2O[C@H](OC/C=C3\C[C@H](C=C(C)C)OC3=O)[C@@H](O)[C@H](O)[C@H]2O)cc1O
- Activity (HepG2 [1]): Active

SMILES: CC(C)=C[C@@H]1C/C(=C\CO[C@H]2O[C@@H](COC(=O)/C=C/c3ccc(O)cc3)[C@H](O)[C@@H](O)[C@@H]2O)C(=O)O1
- Activity (HepG2 [1]): Active

SMILES: CC(C)=C[C@H]1C/C(=C\CO[C@H]2O[C@@H](COC(=O)/C=C/c3ccc(O)cc3)[C@H](O)[C@@H](O)[C@@H]2O)C(=O)O1
- Activity (HepG2 [1]): inactive

SMILES: CC(C)=CC(=O)/C=C(/C)CCO[C@H]1O[C@@H](COC(=O)/C=C/c2ccc(O)c(O)c2)[C@H](O)[C@@H](O)[C@@H]1O
- Activity (HepG2 [1]): Active

SMILES: COC(=O)/C=C/c1ccc(O)c(OC)c1
- Activity (HepG2 [1]): inactive
